Reference: publication PMC4807435 (CPT: Pharmacometrics & Systems Pharmacology, 2016)

Columns and labels:
[1] = 2nd trimester vs. pp; capsules; ref Mirochnick et al., JAIDS, 2008 (9); cited from earlier work
[2] = Population PK model of unbound and total LPV/RTV in HIV-infected pregnant women; format: in vivo, human; conditions: for Total body clearance CL/F, back-calculated, median (range): intrinsic clearance × unbound fraction
LPV intrinsic clearance [3] = experiment: LPV-RTV interaction modeling; format: in vivo, human
LPV intrinsic clearance [4] = conditions: same interaction function form; ref Wang et al., 32; cited from earlier work
[5] = final model, 500 bootstrap replicates
[6] = final model, 500 bootstrap replicates, weight-scaled model (per 70kg)

SMILES | Apparent intrinsic clearance CLu/F, post hoc estimate, median (range) ([2]; Visit 1 (20–24 weeks)) | Total body clearance CL/F, back-calculated, median (range) ([2]; Visit 1 (20–24 weeks)) | Total body clearance CL/F, back-calculated, median (range) ([2]; Visit 2 (30 weeks)) | Apparent intrinsic clearance CLu/F, post hoc estimate, median (range) ([2]; Visit 3 (32 weeks)) | Total body clearance CL/F, back-calculated, median (range) ([2]; Visit 3 (32 weeks)) | Apparent intrinsic clearance CLu/F, post hoc estimate, median (range) ([2]; Visit 4 (8 weeks postpartum)) | Total body clearance CL/F, back-calculated, median (range) ([2]; Visit 4 (8 weeks postpartum)) | Interindividual variability of CLu/F, bootstrap estimates (95% CI) ([2]; final model) | Interindividual variability of CLu/F, estimate ([2]; final model) | Interindividual variability of fu, bootstrap estimates (95% CI) ([2]; final model) | Interindividual variability of fu, estimate ([2]; final model) | Interoccasion variability of fu, bootstrap estimates (95% CI) ([2]; final model) | Interoccasion variability of fu, estimate ([2]; final model) | Interoccasion variability of ka, estimate ([2]; final model) | Lag time, estimate ([2]; final model) | ka, estimate ([2]; final model) | Lag time, bootstrap estimates (95% CI) [2, 5] | ka, bootstrap estimates (95% CI) [2, 5] | further results
Cc1cccc(C)c1OCC(=O)N[C@@H](Cc1ccccc1)[C@@H](O)C[C@H](Cc1ccccc1)NC(=O)[C@H](C(C)C)N1CCCNC1=O [LPV, lopinavir] | 232 (226, 237) L/hr | 5.92 (5.22, 7.22) L/hr | 6.69 (5.73, 8.21) L/hr | 269 (263, 276) L/hr | 6.94 (5.90, 8.46) L/hr | 167 (165, 168) L/hr | 4.28 (3.65, 5.25) L/hr | 2.10 (0.32, 11.4) %CV | 2.70 %CV | 3.81 (0.32, 10.3) %CV | 4.60 %CV | 9.98 (4.68, 13.3) %CV | 10.0 %CV | 138 %CV | 1.77 h | 1.07 h⁻¹ | 1.75 (1.25, 1.93) h | 0.906 (0.582, 1.78) h^−1 | Decrease in AUC [1]: 52%; Increase of median post hoc CLu/F compared to 8 weeks postpartum ([2]; 20–24 weeks of gestation (22 weeks elsewhere in the source)): 38%; Increase of median post hoc CLu/F compared to 8 weeks postpartum ([2]; 30 weeks of gestation): 56%; Increase of median post hoc CLu/F compared to 8 weeks postpartum ([2]; 32 weeks of gestation): 61%; CL/F, estimate ([2]; CL/F = fu × CLu/F): 4.31 L/h; V/F, estimate ([2]; V/F = fu × Vu/F): 88.5 L; Apparent intrinsic clearance CLu/F, post hoc estimate, median (range) ([2]; Visit 2 (30 weeks)): 261 (255, 264) L/hr; fraction unbound ([2]; female, human, plasma, oral, fu, estimate, final model, unbound fraction): 0.0258; Interoccasion variability of CLu/F, bootstrap estimates (95% CI) ([2]; final model): 23.4 (16.1, 29.7) %CV; Interoccasion variability of CLu/F, estimate ([2]; final model): 24.7 %CV; Vu/F, estimate ([2]; final model): 3430 L; CLu/F, bootstrap estimates (95% CI) [2, 5]: 167 (136, 202) L/h; Coefficient of gestational week impact on CLu/F, bootstrap estimates (95% CI) [2, 5]: 0.0148 (0.00835, 0.0223); Vu/F, bootstrap estimates (95% CI) [2, 5]: 3325 (2655, 4256) L; CLu/F, estimate ([2]; final model, population value at gestational week zero (postpartum reference)): 167 L/h; Coefficient of gestational week impact on CLu/F, estimate ([2]; individual final model, CLu/F = θ × e^(coef×WEEK)): 0.0148; Unbound fraction, pregnancy vs postpartum ([2]; population PK covariate analysis): not significantly different; Difference among unbound AUC fractions across the four study visits ([2]; post hoc repeated-measures ANOVA, P > 0.05): no significant findings; LPV clearance estimate (CLu/F) (LPV intrinsic clearance [3]; Basic joint model: LPV and RTV individual final models without interactions): 167 L/h
CC(C)c1nc(CN(C)C(=O)N[C@H](C(=O)N[C@@H](Cc2ccccc2)C[C@H](O)[C@H](Cc2ccccc2)NC(=O)OCc2cncs2)C(C)C)cs1 [RTV, ritonavir] | 273 (161, 421) L/hr | 38.2 (26.0, 42.1) L/hr | 52.3 (33.6, 74.1) L/hr | 357 (191, 508) L/hr | 58.5 (32.6, 93.6) L/hr | 178 (101, 257) L/hr | 26.9 (16.6, 37.5) L/hr | 10.6 (1.92, 19.0) %CV | 8.5 %CV | 23.3 (12.2, 34.4) %CV | 24.4 %CV | 20.8 (12.6, 28.6) %CV | 23.5 %CV | 141.8 %CV | 1.86 h | 1.01 h⁻¹ | 1.86 (1.67, 1.94) h | 1.01 (0.340, 2.00) h^−1 | Interoccasion variability of F, bootstrap estimates (95% CI) ([2]; final model): 30.9 (17.1, 46.1) %CV; Interoccasion variability of F, estimate ([2]; final model): 36.2 %CV; Interoccasion variability of ka, bootstrap estimates (95% CI) ([2]; final model): 142 (81.5, 201) %CV; CLu/F, bootstrap estimates (95% CI) [2, 6]: 157 (120, 202) L/h; Vu/F, bootstrap estimates (95% CI) [2, 6]: 1630 (1040, 2100) L; Interaction parameter (coef) (LPV intrinsic clearance [3]; Model 6, CRTV exponential model, unbound RTV concentration): 0.0028; Interaction coefficient in terms of total RTV concentration (LPV intrinsic clearance [3]; exponential interaction function): 0.00041; Interaction value (LPV-RTV interaction coefficient) (LPV intrinsic clearance [4]): 0.00064
